In assay [1] the test system is CIV-41915. Nature of the assay: microbe, parasite or virus in culture. The following applies: Influenza A virus, MDCK, in Canis lupus familiaris, read-out: Phenotypic assay (Mean IC50 ± SD). The class given is cell-based, canine H3N2 influenza A virus (A/canine/Illinois/41915/2015).
Assay [2] relates to rCIV-1177. Nature of the assay: microbe, parasite or virus in culture. The class given is cell-based. The following applies: Influenza A virus, MDCK, in Canis lupus familiaris, read-out: Phenotypic assay (Mean IC50 ± SD).
In assay [3] the test system is Beth15. Nature of the assay: microbe, parasite or virus in culture. The class given is cell-based, human H3N2 influenza A virus (A/Bethesda/55/2015).
For assay [4], the target named is NA of CIV-41915 (Influenza A virus, UniProt A0A0H3YBU9). The class given is biochemical, canine H3N2 influenza A virus (A/canine/Illinois/41915/2015). As to conditions: read-out: NA enzyme inhibition assay (Mean IC50 ± SD).
Assay [5] has as its target NA of rCIV-1177 (Influenza A virus, UniProt A0A2D0WZJ5). The class given is biochemical. As to conditions: read-out: NA enzyme inhibition assay (Mean IC50 ± SD).
The target of assay [6] is NA of Beth15 (Influenza A virus, UniProt A0A193ACB1). The class given is biochemical, human H3N2 influenza A virus (A/Bethesda/55/2015). As to conditions: read-out: NA enzyme inhibition assay (Mean IC50 ± SD).

Where a name gives a salt, the structure may show the parent alone.

As usually defined, the IC50 is the concentration at which inhibition is half-maximal.

With `NC12CC3CC(CC(C3)C1)C2` [Amantadine, amantadine hydrochloride], the IC50 in assay [1] is 600 ± 100 nM; in assay [2], 300 ± 100 nM; in assay [3] (Influenza A virus, MDCK, read-out: Phenotypic assay (Mean IC50 ± SD)) it was > 100000 nM. In addition, the “Phenotypic assay (Mean IC50 ± SD)” value in assay [3] is given as “resistant”.

On to `CCC(CC)O[C@@H]1C=C(C(=O)O)C[C@H](N)[C@H]1NC(C)=O` [Oseltamivir carboxylate, oseltamivir carboxylate], for which the IC50 in assay [4] came to 0.13 ± 0.01 nM; in assay [5] it was 0.2 ± 0.01 nM.

Take `CCC(CC)[C@H](NC(C)=O)[C@@H]1[C@H](O)[C@@H](C(=O)O)C[C@H]1N=C(N)N` [Peramivir, peramivir]: the values for the IC50 in assay [4], in assay [5] and in assay [6] were 0.15 ± 0.02 nM, 0.19 ± 0.02 nM and 0.12 ± 0.02 nM, respectively.

The record behind these values is PMC7182277, “Characterizing Emerging Canine H3 Influenza Viruses” (PLoS Pathogens, 2020).
